Measured values: ChEMBL document CHEMBL5233262, “Anti-inflammatory activity of naturally occuring diarylheptanoids - A review” (Bioorg Med Chem, 2021)

Key:
[1] = test system: Rattus norvegicus; assay: Antiinflammatory activity in rat model of carrageenan-induced hind paw edema assessed as reduction in paw thickness at 100 mg/kg,ip 30mins before carrageenin exposure and measured after 3 hrs; assay type: functional; set-up: scale not given: the % may be the effect or the level left
[2] = test system: RAW264.7; assay: Antiinflammatory activity in mouse RAW264.7 cells assessed as inhibition of KLA-induced TNFalpha expression at 0.06 mg/ml and measured after 24 hrs by ELISA; assay type: functional
[3] = test system: RAW264.7; assay: Antiinflammatory activity in mouse RAW264.7 cells assessed as inhibition of LPS-induced TNF-alpha production; assay type: functional, cell-based
[4] = test system: RAW264.7; assay: Antiinflammatory activity in mouse RAW264.7 cells assessed as inhibition of LPS-induced IL-1beta production; assay type: functional, cell-based
[5] = test system: RAW264.7; assay: Antiinflammatory activity in mouse RAW264.7 cells assessed as inhibition of LPS-induced IL-6 production; assay type: functional, cell-based
[6] = test system: Hepatocyte; assay: Hepatoprotective activity against CCL4-induced rat hepatocyte toxicity assessed as decrease in TBARS level by measuring MDA formation at 1 uM preincubated for 30 mins followed by CCL4 addition and measured after 180 mins by TBARS method; assay type: functional; set-up: scale not given: the % may be the effect or the level left; settings: time 210 min
[7] = test system: Hepatocyte; assay: Hepatoprotective activity against CCL4-induced rat hepatocyte toxicity assessed as decrease in TNF-alpha level at 1 uM preincubated for 30 mins followed by CCL4 addition and measured after 180 mins by ELISA; assay type: functional; set-up: scale not given: the % may be the effect or the level left; settings: time 210 min
[8] = test system: Hepatocyte; assay: Hepatoprotective activity against CCL4-induced rat hepatocyte toxicity assessed as decrease in ALT level at 1 uM preincubated for 30 mins followed by CCL4 addition and measured after 180 mins by colorimetric method; assay type: functional; set-up: scale not given: the % may be the effect or the level left; settings: time 210 min
[9] = test system: Hepatocyte; assay: Hepatoprotective activity against CCL4-induced rat hepatocyte toxicity assessed as decrease in IL-1beta level at 1 uM preincubated for 30 mins followed by CCL4 addition and measured after 180 mins by ELISA; assay type: functional; set-up: scale not given: the % may be the effect or the level left; settings: time 210 min
[10] = test system: RAW264.7; assay: Antiinflammatory activity in mouse RAW264.7 cells assessed as inhibition of LPS-induced NF-kappaB expression preincubated for 1 hr followed by LPS stimulation and measured after 18 hrs by qPCR analysis; assay type: functional, cell-based
[11] = test system: RAW264.7; assay: Antiinflammatory activity in mouse RAW264.7 cells assessed as inhibition of LPS-induced NO production incubated for 24 hrs by Griess reagent based analysis; assay type: functional, cell-based; settings: RAW264.7, 24 h
[12] = test system: RAW264.7; assay: Antiinflammatory activity in mouse RAW264.7 cells assessed as inhibition of LPS-induced TNFalpha production preincubated for 1 hr followed by LPS stimulation and measured after 18 hrs by immunoassay; assay type: functional, cell-based
[13] = test system: RAW264.7; assay: Antiinflammatory activity in mouse RAW264.7 cells assessed as inhibition of LPS-induced NO production at 3 uM preincubated for 2 hrs followed by LPS stimulation and measured after 24 hrs by Griess method; assay type: functional; settings: time 26 hrs
[14] = test system: RAW264.7; assay: Antiinflammatory activity in mouse RAW264.7 cells assessed as inhibition of LPS-induced IL-6 production at 100 uM preincubated for 2 hrs followed by LPS stimulation and measured after 24 hrs by ELISA; assay type: functional; settings: time 26 hrs
[15] = test system: RAW264.7; assay: Antiinflammatory activity in mouse RAW264.7 cells assessed as inhibition of LPS-induced IL-6 production at 30 uM preincubated for 2 hrs followed by LPS stimulation and measured after 24 hrs by ELISA; assay type: functional; settings: time 26 hrs
[16] = test system: RAW264.7; assay: Antiinflammatory activity in mouse RAW264.7 cells assessed as inhibition of LPS-induced TNFalpha production at 30 uM preincubated for 2 hrs followed by LPS stimulation and measured after 24 hrs by ELISA; assay type: functional; settings: time 26 hrs
[17] = test system: RAW264.7; assay: Antiinflammatory activity in mouse RAW264.7 cells assessed as inhibition of LPS-induced NO production at 10 uM preincubated for 2 hrs followed by LPS stimulation and measured after 24 hrs by Griess method; assay type: functional; settings: time 26 hrs
[18] = test system: RAW264.7; assay: Antiinflammatory activity in mouse RAW264.7 cells assessed as inhibition of LPS-induced NO production at 100 uM preincubated for 2 hrs followed by LPS stimulation and measured after 24 hrs by Griess method; assay type: functional; settings: time 26 hrs
[19] = test system: RAW264.7; assay: Antiinflammatory activity in mouse RAW264.7 cells assessed as inhibition of LPS-induced TNFalpha production at 100 uM preincubated for 2 hrs followed by LPS stimulation and measured after 24 hrs by ELISA; assay type: functional; settings: time 26 hrs
[20] = test system: RAW264.7; assay: Antiinflammatory activity in mouse RAW264.7 cells assessed as inhibition of LPS-induced IL-6 production at 10 uM preincubated for 2 hrs followed by LPS stimulation and measured after 24 hrs by ELISA; assay type: functional; settings: time 26 hrs
[21] = test system: RAW264.7; assay: Antiinflammatory activity in mouse RAW264.7 cells assessed as inhibition of LPS-induced IL-6 production at 3 uM preincubated for 2 hrs followed by LPS stimulation and measured after 24 hrs by ELISA; assay type: functional; settings: time 26 hrs
[22] = test system: RAW264.7; assay: Antiinflammatory activity in mouse RAW264.7 cells assessed as inhibition of LPS-induced NO production at 30 uM preincubated for 2 hrs followed by LPS stimulation and measured after 24 hrs by Griess method; assay type: functional; settings: time 26 hrs
[23] = test system: RAW264.7; assay: Antiinflammatory activity in mouse RAW264.7 cells assessed as inhibition of LPS-induced TNFalpha production at 3 uM preincubated for 2 hrs followed by LPS stimulation and measured after 24 hrs by ELISA; assay type: functional; settings: time 26 hrs
[24] = test system: RAW264.7; assay: Antiinflammatory activity in mouse RAW264.7 cells assessed as inhibition of LPS-induced TNFalpha production at 10 uM preincubated for 2 hrs followed by LPS stimulation and measured after 24 hrs by ELISA; assay type: functional; settings: time 26 hrs
[25] = test system: RAW264.7; assay: Antiinflammatory activity in mouse RAW264.7 cells assessed as inhibition of LPS-induced NF-kappaB activation incubated for 24 hrs by SEAP microplate reader analysis; assay type: functional, cell-based; settings: RAW264.7, 24 h
[26] = Antioxidant activity assessed as nitroblue tetrazolium superoxide radical scavenging activity by spectrophotometric analysis; assay type: functional
[27] = Antioxidant activity assessed as nitroblue tetrazolium superoxide radical scavenging activity incubated for 10 mins by spectrophotometric analysis; assay type: functional
[28] = test system: BV-2; assay: Antiinflammatory activity in mouse BV-2 cells assessed as inhibition of LPS-induced NO production at 10 uM preincubated for 1 hrs followed by LPS stimulation and measured after 24 hrs by Griess assay; assay type: functional; settings: time 25 hrs
[29] = Cytotoxicity against mouse RAW264.7 cells assessed as reduction in cell viability by MTT assay; assay type: toxicity, cell-based
[30] = test system: RAW264.7; assay: Antiinflammatory activity in mouse RAW264.7 cells assessed as inhibition of LPS-induced NO production preincubated for 0.5 hrs followed by LPS stimulation and measured after 24 hrs by Griess reagent based analysis; assay type: functional, cell-based
[31] = test system: RAW264.7; assay: Antiinflammatory activity in mouse RAW264.7 cells assessed as inhibition of LPS-induced NO production preincubated for 1 hrs followed by LPS stimulation and measured after 24 hrs by Griess method; assay type: functional, cell-based
[32] = test system: RAW264.7; assay: Antiinflammatory activity in mouse RAW264.7 cells assessed as inhibition of LPS-induced TNFalpha level preincubated for 1 hrs followed by LPS stimulation and measured after 24 hrs by ELISA; assay type: functional, cell-based
[33] = test system: Rattus norvegicus; assay: Antiinflammatory activity in rat model of ethyl phenylpropiolate-induced ear edema assessed as reduction in ear thickness administered topically and measured after 30 mins; assay type: functional; settings: 0.5 h

## CC(=O)Oc1ccccc1C(=O)O [ASPIRIN]
[1]
  Activity: 80%

## O=C(CCc1ccccc1)C[C@@H](O)/C=C/c1ccccc1
[2]
  inhibition at 60 µg/mL: 37%

## COc1cc2cc(c1O)-c1cc(ccc1O)CC[C@H](OS(=O)(=O)O)CCCC2
[3]
  IC50: 20.1 µM
[4]
  IC50: 22.9 µM
[5]
  IC50: 22.7 µM

## COc1cc(CC[C@@H](CCCCc2cc(O)c(O)c(O)c2)OC(C)=O)cc(OC)c1O
[6]
  Activity: 67.1%
[7]
  Activity: 38.6%
[8]
  Activity: 61.1%
[9]
  Activity: 63.6%

## COc1c2ccc(c1O)CCCCC(=O)CCc1ccc(O)c(c1)O2
[10]
  IC50: 9.2 µM
[11]
  IC50: 18.5 µM
[12]
  IC50: 22.9 µM

## COc1cc(CC[C@H](O)C[C@H](O)[C@@H](O)Cc2ccc(O)c(OC)c2)ccc1O
[13]
  inhibition at 3 µM: 39%
[14]
  inhibition at 100 µM: 43%
[15]
  inhibition at 30 µM: 43%
[16]
  inhibition at 30 µM: 34%
[17]
  inhibition at 10 µM: 39%
[18]
  inhibition at 100 µM: 39%
[19]
  inhibition at 100 µM: 34%
[20]
  inhibition at 10 µM: 43%
[21]
  inhibition at 3 µM: 43%
[22]
  inhibition at 30 µM: 39%
[23]
  inhibition at 3 µM: 34%
[24]
  inhibition at 10 µM: 34%

## C=C1C(=O)O[C@@H]2[C@H]3O[C@]3(C)CC/C=C(\C)CC[C@@H]12
[10]
  IC50: 3.4 µM
[25]
  IC50: 3.4 µM
[11]
  IC50: 2.4 µM
[12]
  IC50: 2.6 µM

## Oc1ncnc2[nH]ncc12 [ALLOPURINOL]
[26]
  IC50: 8 µM
[27]
  IC50: 3.9 µM

## Oc1ccc(CC[C@@H](O)C[C@@H](O)CCc2ccc(O)cc2)cc1
[28]
  inhibition at 10 µM: 65.2%

## O=C(/C=C/C=C/c1ccc(O)c(O)c1)CCc1ccc(O)c(O)c1
[29]
  IC50: 36.4 µM
[30]
  IC50: 8.6 µM

## COc1cc(/C=C/C(=O)CC(=O)/C=C/c2ccc(O)c(OC)c2)ccc1O [CURCUMIN]
[6]
  Activity: 39.2%
[7]
  Activity: 37.1%
[8]
  Activity: 57.6%
[31]
  IC50: 12.3 µM
[32]
  IC50: 11.2 µM
[9]
  Activity: 63.3%

## Oc1ccc(CC[C@@H](O)C[C@H](O)CCc2ccc(O)cc2)cc1 [(+)-HANNOKINOL]
[28]
  inhibition at 10 µM: 51.3%

## O=C(/C=C/C=C/c1ccccc1)CCc1ccccc1
[33]
  ID50: 63 µg
[1]
  Activity: 44%
